Patent publication US8940719B2, “Lithocholic acid analogues that inhibit sialyltransferase” (Academia Sinica, priority 2006, dated 2015)
Where two headings read alike, the source gives them in different places.

What was measured:
[1] = biological target: Rat liver α-2,3-ST (Rattus norvegicus (Rat), UniProt Q02734); assay: α-2,3-ST inhibition assay (IC50), RP-HPLC of sialylated disaccharide product; format: biochemical; conditions: for fold potency increase over 19: vs compound 19
Experimental: Compound synthesis was carried out with the following materials according the following general procedures. All chemicals and buffers were purchased from Sigma, Aldrich, or Acros Organics; and all amino acids were purchased from Advanced Chemtech. CMP-Neu5Ac was synthesized starting with sialic acid (Traving & Schauer, Cell. Mol. Life Sci., 1998, 54:1330; Schwarzkopf et al., Proc. Natl. Acad. Sci. USA, 2002, 99:5267). Synthesis of lactose acceptor was achieved as described in Harduin-Lepers et al., Biochimie, 2001, 83:727. Rat liver α-2,3-ST was obtained from CalBiochem at a concentration of 3.7 mU/μL, stored at −80° C., and used within one week. Melting points (m.p.) were recorded with a capillary melting point apparatus (Electrothermal MEL-TEMP); FT-IR spectra were recorded with Perkin Elmer FT-IR Spectrometer (Paragon 1000) in KBr pellets; ^1H and ^13C NMR spectra were recorded with Bruker AMX400 or 500 MHz instruments. Proton chemical shifts (δ) are reported in parts per million (ppm) relative to the methine singlet at 7.24 ppm for the residual CHCl3 in the deuteriochloroform, or the methyl pentet at 3.30 ppm for the residual CHD2OD in the methanol-d4. Carbon chemical shifts are reported in ppm relative to the internal ^13C signals in CDCl3 (77.0 ppm) and CD3OD-d4 (49.0 ppm). Mass spectra were obtained with a FAB JMS-700 double focusing mass spectrometer (JEOL, Tokyo, Japan), MALDI Voyager DE-PRO (Applied Biosystem Houston, USA), and ESI Finnigan LCQ mass spectrometer (Thermo Finnigan, San Jose, Calif., United States) in negative mode. […] The separation procedure was performed using H2O/0.1% trifluoroacetic acid (TFA) (A) and CH3CN/0.05% TFA (B) as eluents.
Each compound was tested for α-2,3-ST inhibition using CMP-Neu5Ac as a substrate and a modified disaccharide with a 4,5-dimethoxy-2-nitrobenzyl group as a UV-labeled acceptor. Specifically, inhibition assays were performed in triplicate in reaction solution containing 200 mM MES buffer, 100 mM sodium chloride, 0.5 mM disodium-EDTA, 0.01% Triton X-100, 20 μM modified disaccharide, 1.4 mU α-2,3-ST and inhibitor (in dimethyl sulfoxide) in a total volume of 55. Reactions were incubated at 37° C. for 10 minutes at which point 1 mM CMP-Neu5Ac (to a final concentration 3 μM) was added. The solution was then incubated at 37° C. until a detectable amount of product was produced. The reaction was terminated by quenching the solution mixture with heat at 100° C. for 5 minutes. Enzyme activity was determined by monitoring the quantity of sialylated disaccharide product produced over time at 348 nm by RP-HPLC (Supelco Discovery® HS C18, 5 μm, 4.6 mm×25 cm).

[2] = test system: CL1-5 lung cancer cells; assay: Cytotoxicity / cell growth, trypan blue exclusion; format: cell-based; conditions: 5 μM or 10 μM, 48 hours, FBS-free media
Experimental: To determine the effect of the synthesized membrane-permeable α-2,3-ST inhibitors disclosed in Example 1 on cellular processes, in vitro cytotoxicity and adhesion assays were performed on the highly metastatic lung cancer cell line CL1-5. CL1-5 cells were plated at 1×10^6 cells per 60 mm culture dish in DMEM containing 10% fetal bovine serum (FBS) in 5% CO2. The following day the media was replaced with FBS-free media containing inhibitors at 5 μM or 10 μM concentration in DMSO. Controls cells were treated with 0.1% DMSO-containing medium without inhibitor. Cell number and viability were determined 48 hours later by trypan blue exclusion. Treatment with three α-2,3-ST inhibitors, N-Pentyonic (compound 21), Lith-Triethyl-de (compound 20), and Lith-o-Asp (compound 13), inhibited CL1-5 cell growth by between 10-20% compared to control (FIG. 2A).

[3] = α-2,3-ST, CMP-Neu5Ac substrate, triplicate, read-out: IC50

Rat liver α-2,3-ST, sequence (Q02734 whole entry): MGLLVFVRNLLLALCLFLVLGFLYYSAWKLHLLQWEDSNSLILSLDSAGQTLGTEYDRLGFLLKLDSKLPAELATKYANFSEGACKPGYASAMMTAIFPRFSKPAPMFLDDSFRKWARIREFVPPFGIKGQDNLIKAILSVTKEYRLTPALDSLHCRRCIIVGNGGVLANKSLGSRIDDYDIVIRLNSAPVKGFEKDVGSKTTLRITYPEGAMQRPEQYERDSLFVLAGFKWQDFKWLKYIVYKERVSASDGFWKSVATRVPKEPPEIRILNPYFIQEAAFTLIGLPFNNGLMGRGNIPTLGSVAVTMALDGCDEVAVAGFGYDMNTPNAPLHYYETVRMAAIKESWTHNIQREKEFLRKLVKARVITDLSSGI

Compound	IC50 [1, 3] [mM]	other results
C[C@H](CCCOP(=O)(Oc1ccccc1)Oc1ccccc1)C1CC[C@H]2C3CC[C@@H]4C[C@H](O)CC[C@]4(C)C3CC[C@]12C (stereo partly drawn) [Compound 8, (R)-4-((3R,5R,10S,13R,14S)-3-hydroxy-10,13-dimethyl-hexadecahydro-1H-cyclopenta[a]phenanthren-17-yl)pentyl diphenyl phosphonate]	> 0.1	fold decrease in potency relative to lithocholic acid ([1]; vs lithocholic acid): 5 to 17 fold
C[C@H](CCC(=O)NCC(=O)O)C1CC[C@H]2C3CC[C@@H]4C[C@H](O)CC[C@]4(C)C3CC[C@]12C (stereo partly drawn) [Compound 9, 2-((R)-4-((3R,5R,10S,13R,14S)-3-hydroxy-10,13-dimethyl-hexadecahydro-1H-cyclopenta[a]phenanthren-17-yl)pentanamido)acetic acid]	0.025	–
C[C@H](CCC(=O)O)C1CC[C@H]2C3CC[C@@H]4C[C@H](OC(=O)CCC(=O)O)CC[C@]4(C)C3CC[C@]12C (stereo partly drawn) [Compound 12, (R)-4-((3R,5R,10S,13R,14S)-3-(3-carboxypropanoyloxy)-10,13-dimethyl-hexadecahydro-1H-cyclopenta[a]phenanthren-17-yl)pentanoic acid]	0.012	fold potency over lithocholic acid ([1]; vs lithocholic acid): 2 fold
C[C@H](CCC(=O)NCC(=O)O)C1CC[C@H]2C3CC[C@@H]4C[C@H](OC(=O)CCC(=O)O)CC[C@]4(C)C3CC[C@]12C (stereo partly drawn) [Compound 15, 4-((3R,5R,10S,13R,14S)-17-((R)-5-(carboxymethylamino)-5-oxopentan-2-yl)-10,13-dimethyl-hexadecahydro-1H-cyclopenta[a]phenanthren-3-yloxy)-4-oxobutanoic acid]	0.022	–
C[C@H](CCCn1cc(CC(N)C(=O)O)nn1)C1CC[C@H]2C3CC[C@@H]4C[C@H](O)CC[C@]4(C)C3CC[C@]12C (stereo partly drawn) [Compound 19, 2-amino-3-(1-((R)-4-((3R,5R,10S,13R,14S)-3-hydroxy-10,13-dimethyl-hexadecahydro-1H-cyclopenta[a]phenanthren-17-yl)pentyl)-1H-1,2,3-triazol-4-yl)propanoic acid]	0.083	–
C[C@H](CCCn1cc(CCO)nn1)C1CC[C@H]2C3CC[C@@H]4C[C@H](O)CC[C@]4(C)C3CC[C@]12C (stereo partly drawn) [Compound 18, (3R,5R,10S,13R,14S)-17-((R)-5-(4-(2-hydroxyethyl)-1H-1,2,3-triazol-1-yl)pentan-2-yl)-10,13-dimethyl-hexadecahydro-1H-cyclopenta[a]phenanthren-3-ol]	> 0.1	fold less potent than 21 ([1]; vs compound 21): at least 10 fold; fold less potent than 22 ([1]; vs compound 22): ≥ 20 fold
CCOP(=O)(OCC)C(Cc1cn(CCC[C@@H](C)C2CC[C@H]3C4CC[C@@H]5C[C@H](O)CC[C@]5(C)C4CC[C@]23C)nn1)C(=O)O (stereo partly drawn) [Compound 20, 2-(diethoxyphosphoryl)-3-(1-((R)-4-((3R,5R,10S,13R,14S)-3-hydroxy-10,13-dimethyl-hexadecahydro-1H-cyclopenta[a]phenanthren-17-yl)pentyl)-1H-1,2,3-triazol-4-yl)propanoic acid]	0.007	inhibition of CL1-5 cell growth compared to control [2]: 10-20%; fold potency increase over 19 [1]: 8-12 fold
C[C@H](CCC(=O)O)C1CC[C@H]2C3CC[C@@H]4C[C@H](OC(=O)[C@H](N)CC(=O)O)CC[C@]4(C)C3CC[C@]12C (stereo partly drawn) [Compound 17, (R)-4-((3R,5R,10S,13R,14S)-3-((R)-2-amino-3-carboxypropanoyloxy)-10,13-dimethyl-hexadecahydro-1H-cyclopenta[a]phenanthren-17-yl)pentanoic acid]	0.006	fold improvement in potency over 13 ([1]; vs compound 13): 2 fold
C[C@H](CCC(=O)O)C1CC[C@H]2C3CC[C@@H]4CC(=O)CC[C@]4(C)C3CC[C@]12C (stereo partly drawn) [Compound 11, (R)-4-((5R,10S,13R,14S)-10,13-dimethyl-3-oxo-hexadecahydro-1H-cyclopenta[a]phenanthren-17-yl)pentanoic acid]	0.139	fold decrease in potency relative to lithocholic acid ([1]; vs lithocholic acid): 7 fold
C[C@H](CCCn1cc(CCC(=O)O)nn1)C1CC[C@H]2C3CC[C@@H]4C[C@H](O)CC[C@]4(C)C3CC[C@]12C (stereo partly drawn) [Compound 21, 3-(1-((R)-4-((3R,5R,10S,13R,14S)-3-hydroxy-10,13-dimethyl-hexadecahydro-1H-cyclopenta[a]phenanthren-17-yl)pentyl)-1H-1,2,3-triazol-4-yl)propanoic acid]	0.01	inhibition of CL1-5 cell growth compared to control [2]: 10-20%; fold potency increase over 19 [1]: 8-12 fold
C[C@H](CCCO)C1CC[C@H]2C3CC[C@@H]4C[C@H](O)CC[C@]4(C)C3CC[C@]12C (stereo partly drawn) [Compound 7, (3R,5R,10S,13R,14S)-17-((R)-5-hydroxypentan-2-yl)-10,13-dimethyl-hexadecahydro-1H-cyclopenta[a]phenanthren-3-ol]	0.351	fold decrease in potency relative to lithocholic acid ([1]; vs lithocholic acid): 5 to 17 fold
C[C@H](CCC(=O)O)[C@H]1CC[C@H]2[C@@H]3CC[C@@H]4C[C@H](O)CC[C@]4(C)[C@H]3CC[C@]12C [lithocholic acid]	–	IC50 ([1]; steroid screen for α-2,3-ST inhibition, unit mM, read-out: IC50 value): 0.021 mM
C[C@H](CCC(=O)N[C@@H](CC(=O)O)C(=O)O)C1CC[C@H]2C3CC[C@@H]4C[C@H](O)CC[C@]4(C)C3CC[C@]12C (stereo partly drawn) [Compound 10, (S)-2-((R)-4-((3R,5R,10S,13R,14S)-3-hydroxy-10,13-dimethyl-hexadecahydro-1H-cyclopenta[a]phenanthren-17-yl)pentanamido)succinic acid]	0.016	–
C[C@H](CCC(=O)N[C@@H](CC(=O)O)C(=O)O)C1CC[C@H]2C3CC[C@@H]4C[C@H](OC(=O)CCC(=O)O)CC[C@]4(C)C3CC[C@]12C (stereo partly drawn) [Compound 16, (S)-2-((R)-4-((3R,5R,10S,13R,14S)-3-(3-carboxypropanoyloxy)-10,13-dimethyl-hexadecahydro-1H-cyclopenta[a]phenanthren-17-yl)pentanamido)succinic acid]	0.018	–
C[C@H](CCC(=O)OC(C)(C)C)C1CC[C@H]2C3CC[C@@H]4C[C@H](OC(=O)CCC(=O)O)CC[C@]4(C)C3CC[C@]12C (stereo partly drawn) [Compound 14, 4-((3R,5R,10S,13R,14S)-17-((R)-5-tert-butoxy-5-oxopentan-2-yl)-10,13-dimethyl-hexadecahydro-1H-cyclopenta[a]phenanthren-3-yloxy)-4-oxobutanoic acid]	0.013	–
